Test system: 324938-238-R-J1-PDC complex spheroid viability
Assay: Anticancer human tumor 324938-238-R-J1-PDC patient-derived bladder carcinoma cell line growth inhibition
Conditions: for IC50: curve of first compound; for viability, T/C: stronger effect = lower value
How it was run: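 Complex spheroids of tumor cells with HUVEC and human MSCs, exposed to iadademstat combined with other agents. Each agent tested in half-log steps from near clinical Cmax (else 10 microM top), DMSO ≤0.25%.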

[1] = second compound 0.1 µM, first compound 0.0316 µM
[2] = second compound 0.1 µM, first compound 0.1 µM
[3] = second compound 0.1 µM, first compound 0.316 µM
[4] = second compound 0.1 µM, first compound 1 µM
[5] = second compound 0.316 µM, first compound 0.0316 µM
[6] = second compound 0.316 µM, first compound 0.1 µM
[7] = second compound 0.316 µM, first compound 0.316 µM
[8] = second compound 0.316 µM, first compound 1 µM
[9] = second compound 1 µM, first compound 0.0316 µM
[10] = second compound 1 µM, first compound 0.1 µM
[11] = second compound 1 µM, first compound 0.316 µM
[12] = second compound 1 µM, first compound 1 µM
[13] = second compound 3.16 µM, first compound 0.0316 µM
[14] = second compound 3.16 µM, first compound 0.1 µM
[15] = second compound 3.16 µM, first compound 0.316 µM
[16] = second compound 3.16 µM, first compound 1 µM
[17] = second compound 10 µM, first compound 0.0316 µM
[18] = second compound 10 µM, first compound 0.1 µM
[19] = second compound 10 µM, first compound 0.316 µM
[20] = second compound 10 µM, first compound 1 µM
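Also: spheroids also contain HUVEC and human MSCs and agents combined with iadademstat; spheroids exposed to agents for 7 days before readout.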

SMILES | IC50 (second compound 0.1 µM) | IC50 (second compound 0.316 µM) | IC50 (second compound 1 µM) | IC50 (second compound 3.16 µM) | IC50 (second compound 10 µM) | viability, T/C [1] | viability, T/C [2] | viability, T/C [3] | viability, T/C [4] | viability, T/C [5] | viability, T/C [6] | viability, T/C [7] | viability, T/C [8] | viability, T/C [9] | viability, T/C [10] | viability, T/C [11] | viability, T/C [12] | viability, T/C [13] | viability, T/C [14] | viability, T/C [15] | other results
COc1ccc([C@@H](O)c2cc(-c3ncnc4cc(N5CCOCC5)ccc34)c(F)cc2Cl)nn1 + NC1CC1c1ccc(-c2cccc(O)c2)cc1 | 1440 nM | 481 nM | 411 nM | 313 nM | 439 nM | 82.3% | 77.6% | 65.2% | 54% | 71.3% | 61.8% | 52% | 45.7% | 63.6% | 60.5% | 49.6% | 43.2% | 62.6% | 59.4% | 49.4% | viability, T/C (second compound 0.1 µM, first compound 3.16 µM): 41.5%; viability, T/C (second compound 0.1 µM, first compound 10 µM): 25.7%; viability, T/C (second compound 0.316 µM, first compound 3.16 µM): 34.9%; viability, T/C (second compound 0.316 µM, first compound 10 µM): 25%; viability, T/C (second compound 1 µM, first compound 3.16 µM): 37.5%; viability, T/C (second compound 1 µM, first compound 10 µM): 23.4%; viability, T/C [16]: 39.7%; viability, T/C (second compound 3.16 µM, first compound 3.16 µM): 35.3%; viability, T/C (second compound 3.16 µM, first compound 10 µM): 25.6%; viability, T/C [17]: 64.2%; viability, T/C [18]: 60.2%; viability, T/C [19]: 55.6%; viability, T/C [20]: 38.5%; viability, T/C (second compound 10 µM, first compound 3.16 µM): 32.7%; viability, T/C (second compound 10 µM, first compound 10 µM): 21.8%
O=C(C=Cn1cnc(-c2cc(C(F)(F)F)cc(C(F)(F)F)c2)n1)NNc1cnccn1 + NC1CC1c1ccc(-c2cccc(O)c2)cc1 | < 3.16 nM | < 3.16 nM | < 3.16 nM | < 3.16 nM | < 3.16 nM | 14.1% | 4.16% | 3% | 1.86% | 14.2% | 5.76% | 2.95% | 1.73% | 13.8% | 5.75% | 2.87% | 2.29% | 15.4% | 6% | 2.83% | viability, T/C (second compound 0.1 µM, first compound 0.00316 µM): 46%; viability, T/C (second compound 0.1 µM, first compound 0.01 µM): 26.3%; viability, T/C (second compound 0.316 µM, first compound 0.00316 µM): 42.2%; viability, T/C (second compound 0.316 µM, first compound 0.01 µM): 27%; viability, T/C (second compound 1 µM, first compound 0.00316 µM): 36.1%; viability, T/C (second compound 1 µM, first compound 0.01 µM): 25.1%; viability, T/C (second compound 3.16 µM, first compound 0.00316 µM): 38.3%; viability, T/C (second compound 3.16 µM, first compound 0.01 µM): 27.7%; viability, T/C [16]: 2.25%; viability, T/C (second compound 10 µM, first compound 0.00316 µM): 42.1%; viability, T/C (second compound 10 µM, first compound 0.01 µM): 30.2%; viability, T/C [17]: 20.4%; viability, T/C [18]: 11.6%; viability, T/C [19]: 5.72%; viability, T/C [20]: 2.7%
